Assay results from patent US7638540B2, “Benzofuran compound and medicinal composition containing the same” (The New Industry Research Organization, priority 2003, dated 2009).

Legend:
human BLT2 = target: T1, human BLT2 (Homo sapiens, UniProt Q9NPC1); assay: LTB4-induced increase in intracellular calcium ion concentration in CHO cells expressing human BLT2 (Fluo-3, Flexstation); type: cell-based; conditions: compound 10 μM final, LTB4 100 nM final
T1 construct: expressed in transfected cells; host or cells: CHO cells
T1 sequence (Q9NPC1 1-358): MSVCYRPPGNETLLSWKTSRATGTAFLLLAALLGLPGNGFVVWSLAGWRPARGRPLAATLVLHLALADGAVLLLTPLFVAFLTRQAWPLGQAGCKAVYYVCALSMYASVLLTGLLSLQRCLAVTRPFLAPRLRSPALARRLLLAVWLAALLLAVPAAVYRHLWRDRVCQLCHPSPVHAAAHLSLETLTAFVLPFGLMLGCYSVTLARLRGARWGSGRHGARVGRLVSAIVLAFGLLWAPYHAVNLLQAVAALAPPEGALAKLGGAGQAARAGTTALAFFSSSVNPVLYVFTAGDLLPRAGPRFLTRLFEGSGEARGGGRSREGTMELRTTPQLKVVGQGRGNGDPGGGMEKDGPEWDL
Description: CHO cells habouring a gene encoding human BLT1 or human BLT2 and functionally expressing the receptor were seeded in a 96 well plate at 4×10^4 cells/well, and cultured at 37° C. for 60 min. The culture supernatant was removed and a loading buffer (100 μl) containing 4 μM Fluo-3 (manufactured by Dojindo), 0.04% pluoronic acid (manufactured by Sigma) and 1% serum was added. The mixture was culture at 37° C. for 30 min to introduce Fluo-3 into the cells. After culture, the cells were washed with a buffer, and a buffer containing various compounds (10 μM (final concentration)) was added, and then 100 nM (final concentration) of LTB4 was added. Changes in the intracellular calcium ion concentration were measured with Flexstation (manufactured by Molecular Devices Corporation) as increase in the fluorescence intensity (area under a curve in a time-course graph of fluorescence intensity in 10 min measurement). As a positive control of BLT1 and BLT2 antagonists, ZK158252 was used.

melting point [°C] | SMILES | Suppressive effect on increase in intracellular calcium ion concentration compared with ZK158252 (in words) (human BLT2)
142.7 to 144.3 | COc1ccc2oc(-c3csc(N=CN(C)C)n3)c(-c3ccc(Cl)cc3)c2c1 [Example 219, N′-{4-[3-(4-chlorophenyl)-5-methoxybenzofuran-2-yl]thiazol-2-yl}-N,N-dimethylformamidine] | almost of the same level as or not less than that by ZK158252
140.1 to 142 | COc1cccc2cc(/C(Cl)=C/C=C/C(=O)N(C(C)C)C(C)C)oc12 [Example 142, (2E,4Z)-5-chloro-5-(7-methoxybenzofuran-2-yl)penta-2,4-dienoic acid diisopropylamide] | almost of the same level as or not less than that by ZK158252
263.3 to 265.3 | C/C(O)=C(\C#N)C(=O)Nc1c(C(=O)c2ccc(Cl)cc2)oc2ccc(Br)cc12 [Example 98, (Z)-N-[5-bromo-2-(4-chlorobenzoyl)benzofuran-3-yl]-2-cyano-3-hydroxy-2-butenamide] | almost of the same level as or not less than that by ZK158252

More lines, now with the values behind:

SMILES | melting point [°C] | Suppressive effect on increase in intracellular calcium ion concentration compared with ZK158252 (in words) (human BLT2)
CCOC(=O)CCCOc1cccc2cc(/C(C)=C/C(=O)N(CC)CC)oc12 [Example 224, Ethyl (E)-4-[2-(2-diethylcarbamoyl-1-methylvinyl)benzofuran-7-yloxy]butyrate] | – | almost of the same level as or not less than that by ZK158252
COc1ccc(NC(=O)/C=C/c2oc3ccc(OC)cc3c2-c2ccc(Cl)cc2)cc1 [Example 141, (E)-3-[3-(4-chlorophenyl)-5-methoxybenzofuran-2-yl]-N-(4-methoxyphenyl)acrylamide] | 194 to 195.1 | almost of the same level as or not less than that by ZK158252
COc1cccc2cc(/C(Cl)=C/C=C/C(=O)N3CCCCC3)oc12 [Example 144, (2E,4Z)-5-chloro-5-(7-methoxybenzofuran-2-yl)-1-piperidin-1-ylpenta-2,4-dien-1-one] | 142.2 to 144.4 | almost of the same level as or not less than that by ZK158252
COc1ccc2oc(-c3csc(NC(=O)/C(C#N)=C(/C)O)n3)c(-c3ccc(Cl)cc3)c2c1 [Example 222, (Z)-2-cyano-3-hydroxy-2-butenoic acid {4-[3-(4-chlorophenyl)-5-methoxybenzofuran-2-yl]thiazol-2-yl}amide] | 229.5 to 231 | almost of the same level as or not less than that by ZK158252
